This is an account of results in patent EP4813991A1 (iLeadBMS Co., Ltd., priority 2023, dated 2025).

The test system of one test is Cyclin K. In words: Analysis of Cyclin K degradation ability in MKN45 gastric cancer cells (western blot). The class given is cell-based. The following applies: 8 hours or 24 hours, compared to the negative control group (DMSO), FIGs. 4 and 5. Here is the method:
In order to confirm the Cyclin K degradation ability of the Example compounds, HCC70 breast cancer cells and MKN45 gastric cancer cells were cultured in RPMI-1640 medium supplemented with 10 % FBS, and then the cells were collected to prepare cell suspensions. The HCC70 breast cancer cell suspension was dispensed at a cell number of 2.0 X 10^6 per 6-well and cultured in a 5 % CO2 cell incubator at 37 °C for 24 hours, and the MKN45 gastric cancer cell suspension was dispensed at a cell number of 5.0 X 10^6 per 6-well and cultured in a 5 % CO2 cell incubator at 37 °C for 24 hours. The next day, each Example compound dissolved and diluted in DMSO across 4 to 5 concentration ranges and a negative control group (DMSO-treated group) were added to the 6-wells, and the HCC70 breast cancer cells were treated for 8 hours while the MKN45 gastric cancer cells were treated with the compounds for 8 hours or 24 hours. After completion of the compound treatment, the medium was removed, each cell was washed with PBS, and then 100 µL of RIPA buffer for cell lysis was added to each 6-well to collect cell lysates. The protein concentration of the cell lysates was quantified by the […], and loading buffer was added to adjust the protein concentration to 30 µg, followed by reaction at 85 °C for 10 minutes, centrifugation, and standing at room temperature. […]
In general terms: In western blotting, separated proteins are transferred to a membrane and probed.

Another test concerns SW480. In words: Colorectal cancer cell proliferation inhibitory activity, SW480. The class given is cell-based. The following applies: Homo sapiens, 72 hours, Cell Counting Kit-8, relative IC50. Here is the method: (§1) Experiments were performed using seven types of colorectal cancer cell lines to measure the cell proliferation inhibitory ability of each Example compound. DLD-1, LoVo, SW620, SW480, HCT116, HCT15, and HT29 cells were dispensed into a 96-well plate at 100 µL of cell suspension per well using RPMI1640 medium containing 10 % FBS and 1 % PS, followed by incubation in a cell incubator at 37 °C and 5 % CO2. The next day, each Example compound dissolved and diluted in DMSO across 10 concentration ranges and a DMSO control group were treated on the cells for 72 hours. After completion of the compound treatment, 10 µL of Cell Counting Kit-8 (Dojindo) reagent was added to each well of the 96-well plate, followed by incubation for 2 hours. […] were measured after inserting the 96-well plate into an Envision plate reader […]. Relative IC50 values were calculated by fitting a dose-response curve using Graphpad PRISM software.
(§2) The colorectal cancer cell proliferation inhibitory activities of the Example compounds measured by the method described above were evaluated according to the following criteria, and the results are presented in Table 19.
(In general: Formazan colour is commonly taken as a measure of viable cells.)

Another test deals with HCT15. Kind of test: Colorectal cancer cell proliferation inhibitory activity, HCT15. It counts as cell-based. To be noted: Homo sapiens, HCT-15; 72 hours, Cell Counting Kit-8, relative IC50. Here is the method: as §1, §2
The next test addresses CDK1 (Homo sapiens, UniProt P06493). Kind of test: CDK1 kinase inhibitory activity assay and selectivity over CDK12. It counts as biochemical. The following applies: for IC50: kinase reaction 120 minutes, 33P-gamma-ATP. Here is the method: (§3) Before initiating the CDK1 and CDK2 kinase reactions, each Example compound was dissolved and diluted in DMSO as a solvent across 9 concentration ranges at room temperature. The diluted solutions were then incubated with a mixture of kinase and substrate (and cofactors, if required) for 20 minutes. Next, radioisotope-labeled ATP (^33P-gamma-ATP) was added to proceed with the kinase reaction at room temperature for 120 minutes. After the reaction was completed, the reaction mixture was transferred to a filter paper that binds the radioisotope-labeled catalytic product (^33P-substrate). Unreacted ^33P-ATP was removed by washing with 0.75 % phosphoric acid, and then the radioactive phosphorylated substrate remaining on the filter paper was measured. Kinase activity data were expressed as a percentage of the kinase activity remaining in the test sample compared to a DMSO control group. The half-maximal inhibitory concentration (IC50) for each kinase was calculated using Prism software.
(§4) The CDK1 and CDK2 kinase inhibitory activities of the Example compounds measured by the above method were evaluated according to the following criteria, and the results are presented in Table 14.

In another test the target is CDK2 (Homo sapiens, UniProt P24941). In words: CDK2 kinase inhibitory activity assay and selectivity over CDK12. The class given is biochemical. The following applies: for IC50: kinase reaction 120 minutes, 33P-gamma-ATP; for CDK2/CDK12: ratio of CDK2 IC50 to CDK12 IC50. Here is the method:
as §3, §4

Another test deals with AGS cells. In words: Gastric cancer cell proliferation inhibitory activity (CellTiter Glo), AGS. The following applies: Homo sapiens, AGS, 72 hours, relative IC50. The class given is cell-based. The method, then: (§5) Experiments were performed using four types of gastric cancer cell lines (AGS, SNU-1, KATO-III, and MKN45) to measure the cell proliferation inhibitory ability of each Example compound. For AGS cells, 90 µL of cell suspension was dispensed into a 96-well plate using F-12K (Gibco) medium containing 10 % FBS, followed by incubation in a cell incubator at 37 °C and 5 % CO2. For SNU-1 and MKN45 cells, 90 µL of cell suspension was dispensed into a 96-well plate using RPMI1640 (Gibco) medium containing 10 % FBS, followed by incubation in a cell incubator at 37 °C and 5 % CO2. For KATO-III cells, 90 uL of cell suspension was dispensed into a 96-well plate using IMDM (Gibco) medium containing 10 % FBS, followed by incubation in a cell incubator at 37 °C and 5 % CO2. The next day, each Example compound dissolved and diluted in DMSO across 9 concentration ranges and a DMSO control group were added at 10 µL to each 96-well plate and treated for 72 hours. After completion of the compound treatment, 100 µL of CellTiter Glo (Promega) reagent was added to each well of the 96-well plate, followed by shaking for 10 minutes and standing at room temperature for 10 minutes. Luminescence signals were measured after inserting the 96-well plate into an Envision plate reader (PerkinElmer). Relative IC50 values were calculated by fitting a dose-response curve using XLfit (IDBS Ltd) software.
(§6) The gastric cancer cell proliferation inhibitory activities of the Example compounds measured by the method described above were evaluated according to the following criteria, and the results are presented in Table 16.
(In general: In ATP-based viability assays light output follows the ATP content of the culture.)

Another test has as its system KATO-III cells. Kind of test: Gastric cancer cell proliferation inhibitory activity (CellTiter Glo), KATO-III. The class given is cell-based. The following applies: Homo sapiens, KATO III, 72 hours, relative IC50. The method, then: as §5, §6
A further test relates to MKN45 cells. Kind of test: Gastric cancer cell proliferation inhibitory activity (CellTiter Glo), MKN45. The class given is cell-based. The following applies: Homo sapiens, MKN-45, 72 hours, relative IC50. The method, then: as §5, §6

Chain of CDK1 (P06493 whole entry, species assumed): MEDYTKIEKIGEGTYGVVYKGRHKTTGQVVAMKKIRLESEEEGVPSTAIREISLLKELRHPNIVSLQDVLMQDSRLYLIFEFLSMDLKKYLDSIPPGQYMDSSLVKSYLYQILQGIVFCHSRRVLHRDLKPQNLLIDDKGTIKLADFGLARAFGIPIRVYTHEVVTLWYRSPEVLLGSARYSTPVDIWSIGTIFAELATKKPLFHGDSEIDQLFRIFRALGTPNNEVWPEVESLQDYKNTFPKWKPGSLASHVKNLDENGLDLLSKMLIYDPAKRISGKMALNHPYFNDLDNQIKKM
Chain of CDK1 (P14635 whole entry partner, species assumed): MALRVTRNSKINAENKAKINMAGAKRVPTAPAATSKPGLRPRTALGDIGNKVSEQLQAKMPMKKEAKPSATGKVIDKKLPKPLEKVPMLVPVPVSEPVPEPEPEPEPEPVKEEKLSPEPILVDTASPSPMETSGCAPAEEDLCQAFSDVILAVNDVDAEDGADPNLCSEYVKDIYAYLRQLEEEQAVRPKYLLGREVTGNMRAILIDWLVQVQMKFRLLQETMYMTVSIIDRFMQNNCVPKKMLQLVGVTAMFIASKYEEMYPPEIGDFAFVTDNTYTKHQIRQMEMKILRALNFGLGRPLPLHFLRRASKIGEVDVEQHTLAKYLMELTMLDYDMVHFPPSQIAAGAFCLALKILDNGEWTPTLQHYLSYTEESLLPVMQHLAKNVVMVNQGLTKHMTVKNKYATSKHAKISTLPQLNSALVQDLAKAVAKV

On to `Nc1ncc(-c2cc(NCc3nc4cc(Cl)c(Cl)cc4[nH]3)c3ncc(C(F)(F)F)n3n2)cn1` [Example 40], for which the “Cyclin K degradation ability” value in the test with Cyclin K is recorded as “strongly degrade Cyclin K”. In addition, the IC50 was no more than 200 nM with SW480, no more than 200 nM in the test with HCT15, greater than 1000 nM against CDK1 and greater than 1000 nM against CDK2.
For the compound `N#CC1CN(c2cc(NCc3nc4cc(Cl)c(Cl)cc4[nH]3)c3ncc(C(F)(F)F)n3n2)C1` [Example 30, 1-(8-(((5,6-dichloro-1H-benzol[d]imidazol-2-yl)methyl)amino)-3-(trifluoromethyl)imidazo[1,2-b]pyridazin-6-yl)azetidine-3-carbonitrile], the IC50 in the test on AGS cells was no more than 200 nM; on CDK1, greater than 1000 nM; with KATO-III cells, no more than 200 nM; with MKN45 cells, no more than 200 nM; against CDK2, greater than 1000 nM. The CDK2/CDK12 entry on CDK2 is given as “C (CDK1/CDK12 or CDK2/CDK12 ≤ 100-fold)”.
Take `CN1CCN(c2cc(NCc3nc4cc(Cl)c(Cl)cc4[nH]3)c3ncc(C(F)(F)F)n3n2)CC1` [Example 29, N-((5,6-dichloro-1H-benzo[d]imidazol-2-yl)methyl)-6-(4-methylpiperazin-1-yl)-3-(trifluoromethyl)imidazo[1,2-b]pyridazin-8-amine]: the IC50 with AGS cells is no more than 200 nM; against CDK1, greater than 1000 nM; in the test on KATO-III cells, no more than 200 nM; with MKN45 cells, no more than 200 nM; against CDK2 it was greater than 1000 nM.
For `CN1CCN(c2cc(NCc3nc4ccc(F)c(F)c4[nH]3)c3ncc(C(F)(F)F)n3n2)CC1` [Example 8, N-((6,7-difluoro-1H-benzo[d]imidazol-2-yl)methyl)-6-(4-methylpiperazin-1-yl)-3-(trifluoromethyl)imidazo[1,2-b]pyridazin-8-amine], the “Cyclin K degradation ability” value with Cyclin K is reported as “strongly degrade Cyclin K”. Further, the half-inhibitory concentration (IC50) with AGS cells was no more than 200 nM; in the test with SW480 it was no more than 200 nM; in the test on HCT15 it was no more than 200 nM; against CDK1 it was greater than 1000 nM; in the test on KATO-III cells, no more than 200 nM; with MKN45 cells, no more than 200 nM. This compound also registered an IC50 on CDK2 greater than 1000 nM. Further, at CDK1 (ratio of CDK1 IC50 to CDK12 IC50), the CDK1/CDK12 result was “A (CDK1/CDK12 or CDK2/CDK12 > 500-fold)”. On CDK2, the CDK2/CDK12 result is recorded as “B (100-fold < CDK1/CDK12 or CDK2/CDK12 ≤ 500-fold)”.

By IC50 is commonly meant the midpoint of a concentration-inhibition curve. High values mean weaker potency, low ones greater potency.
